Test results from patent US12522588B2, “Herbicidal compounds” (SYNGENTA CROP PROTECTION AG, priority 2020, dated 2026).

Columns and labels:
Format in all cases: in vivo
[1] = test system: Echinochloa crus-galli (ECHCG); assay: Post-emergence test, glasshouse; conditions: 250 g/ha
Method: (§1) Seeds of a variety of test species are sown in standard soil in pots Amaranthus retoflexus (AMARE), Abutilon theophrasti (ABUTH), Setaria faberi (SETFA), Echinochloa crus-galli (ECHCG), Ipomoea hederacea (IPOHE)). After cultivation for one day (pre-emergence) or after 8 days cultivation (post-emergence) under controlled conditions in a glasshouse (at 24/16° C., day/night; 14 hours light; 65% humidity), the plants are sprayed with an aqueous spray solution derived from the formulation of the technical active ingredient in acetone/water (50:50) solution containing 0.5% Tween 20 (polyoxyethelyene sorbitan monolaurate, CAS RN 9005-64-5). Compounds are applied at 250 g/ha unless otherwise stated. The test plants are then grown in a glasshouse under controlled conditions in a glasshouse (at 24/16° C., day/night; 14 hours light; 65% humidity) and watered twice daily. After 13 days for pre and post-emergence, the test is evaluated for the percentage damage caused to the plant. The biological activities are shown in the following table on a five-point scale (5=81-100%; 4=61-80%; 3=41-60%; 2=21-40%; 1=0-20%).

[2] = test system: Amaranthus retoflexus (AMARE); assay: Post-emergence test, glasshouse; conditions: 250 g/ha
Method: as §1

[3] = test system: Abutilon theophrasti (ABUTH); assay: Post-emergence test, glasshouse; conditions: 250 g/ha
Method: as §1

Setaria faberi (SETFA) [4] = assay: Post-emergence test, glasshouse; conditions: 250 g/ha
Method: as §1

[5] = test system: Echinochloa crus-galli (ECHCG); assay: Pre-emergence test, glasshouse; conditions: 250 g/ha
Method: as §1

[6] = test system: Amaranthus retoflexus (AMARE); assay: Pre-emergence test, glasshouse; conditions: 250 g/ha
Method: as §1

[7] = test system: Abutilon theophrasti (ABUTH); assay: Pre-emergence test, glasshouse; conditions: 250 g/ha; for percentage damage caused to the plant, ABUTH: evaluated after 13 days, Table B2; for percentage damage caused to the plant, LABUTH: comparative test
Method: as §1

Setaria faberi (SETFA) [8] = assay: Pre-emergence test, glasshouse; conditions: 250 g/ha
Method: as §1

[9] = test system: Ipomoea hederacea (IPOHE); assay: Pre-emergence test, glasshouse; conditions: 250 g/ha
Method: as §1

[10] = test system: Ipomoea hederacea (IPOHE); assay: Post-emergence test, glasshouse; conditions: 250 g/ha
Method: as §1

[11] = evaluated after 13 days, Table B1
[12] = evaluated after 13 days, Table B2

| Structure (SMILES) | percentage damage caused to the plant, ECHCG [1, 11] | percentage damage caused to the plant, ECHCG ([1]; comparative test) | percentage damage caused to the plant, AMARE [2, 11] | percentage damage caused to the plant, AMARE ([2]; comparative test) | percentage damage caused to the plant, ABUTH [3, 11] | percentage damage caused to the plant, ABUTH ([3]; comparative test) | percentage damage caused to the plant, SETFA (Setaria faberi (SETFA) [4]; [11]) | percentage damage caused to the plant, SETFA (Setaria faberi (SETFA) [4]; comparative test) | percentage damage caused to the plant, ECHCG [5, 12] | percentage damage caused to the plant, ECHCG ([5]; comparative test) | percentage damage caused to the plant, AMARE [6, 12] | percentage damage caused to the plant, AMARE ([6]; comparative test) | percentage damage caused to the plant, ABUTH [7] | percentage damage caused to the plant, LABUTH [7] | percentage damage caused to the plant, SETFA (Setaria faberi (SETFA) [8]; [12]) | percentage damage caused to the plant, SETFA (Setaria faberi (SETFA) [8]; comparative test) | percentage damage caused to the plant, IPOHE [9, 12] | percentage damage caused to the plant, IPOHE ([9]; comparative test) | percentage damage caused to the plant, IPOHE [10, 11] | percentage damage caused to the plant, IPOHE ([10]; comparative test) |
| --- | --- | --- | --- | --- | --- | --- | --- | --- | --- | --- | --- | --- | --- | --- | --- | --- | --- | --- | --- | --- |
| FC(F)(F)c1ccc(-n2nc(C(F)(F)F)cc2Oc2ncc(Cl)cn2)cc1 [Compound 1.001, 5-chloro-2-[5-(trifluoromethyl)-2-[4-(trifluoromethyl)phenyl]pyrazol-3-yl]oxy-pyrimidine] | 5 (5=81-100%) | 5 (5=81-100%) | 5 (5=81-100%) | 5 (5=81-100%) | 5 (5=81-100%) | 5 (5=81-100%) | 5 (5=81-100%) | 5 (5=81-100%) | 5 (5=81-100%) | 5 (5=81-100%) | 5 (5=81-100%) | 5 (5=81-100%) | 4 (4=61-80%) | 4 (4=61-80%) | 5 (5=81-100%) | 5 (5=81-100%) | 5 (5=81-100%) | 5 (5=81-100%) | – | – |
| FC(F)(F)c1cc(Oc2ncc(Cl)cn2)n(-c2ccc(Cl)cc2)n1 [Compound 1.002] | 5 (5=81-100%) | 5 (5=81-100%) | 5 (5=81-100%) | 5 (5=81-100%) | 3 (3=41-60%) | 3 (3=41-60%) | 5 (5=81-100%) | 5 (5=81-100%) | 5 (5=81-100%) | 5 (5=81-100%) | 5 (5=81-100%) | 5 (5=81-100%) | 2 (2=21-40%) | 2 (2=21-40%) | 5 (5=81-100%) | 5 (5=81-100%) | 1 (1=0-20%) | 1 (1=0-20%) | 4 (4=61-80%) | 4 (4=61-80%) |
| FC(F)(F)c1cccc(-n2nc(C(F)(F)F)cc2Oc2ncc(Cl)cn2)c1 [Compound 1.003] | 1 (1=0-20%) | – | 5 (5=81-100%) | – | 1 (1=0-20%) | – | 3 (3=41-60%) | – | 2 (2=21-40%) | – | 5 (5=81-100%) | – | 1 (1=0-20%) | – | 5 (5=81-100%) | – | 1 (1=0-20%) | – | 2 (2=21-40%) | – |
| FC(F)(F)c1cc(Oc2ncc(Cl)cn2)n(-c2cccc(Cl)c2)n1 [Compound 1.004] | 3 (3=41-60%) | – | 5 (5=81-100%) | – | 1 (1=0-20%) | – | 3 (3=41-60%) | – | 2 (2=21-40%) | – | 5 (5=81-100%) | – | 1 (1=0-20%) | – | 3 (3=41-60%) | – | 1 (1=0-20%) | – | 4 (4=61-80%) | – |
| FC(F)c1cc(Oc2ncc(Cl)cn2)n(-c2ccc(C(F)(F)F)cc2)n1 [Compound 1.005] | 1 (1=0-20%) | – | 5 (5=81-100%) | – | 3 (3=41-60%) | – | 2 (2=21-40%) | – | 1 (1=0-20%) | – | 4 (4=61-80%) | – | 1 (1=0-20%) | – | 2 (2=21-40%) | – | 1 (1=0-20%) | – | 2 (2=21-40%) | – |
| Cc1ccc(-n2nc(C(F)(F)F)cc2Oc2ncc(Cl)cn2)nn1 [Compound 1.012] | 1 (1=0-20%) | – | 2 (2=21-40%) | – | 1 (1=0-20%) | – | 1 (1=0-20%) | – | 1 (1=0-20%) | – | 3 (3=41-60%) | – | 1 (1=0-20%) | – | 1 (1=0-20%) | – | 1 (1=0-20%) | – | 1 (1=0-20%) | – |
| Cc1cc(Oc2ncc(Cl)cn2)n(-c2ccc(C(F)(F)F)cc2)n1 [Compound C1, reference compound] | – | 1 (1=0-20%) | – | 4 (4=61-80%) | – | 2 (2=21-40%) | – | 2 (2=21-40%) | – | 1 (1=0-20%) | – | – | – | 1 (1=0-20%) | – | 2 (2=21-40%) | – | 1 (1=0-20%) | – | 1 (1=0-20%) |
| Cc1cc(Oc2ncc(Cl)cn2)n(-c2ccc(Cl)cc2)n1 [Compound C2, reference compound] | – | 2 (2=21-40%) | – | 3 (3=41-60%) | – | 1 (1=0-20%) | – | 2 (2=21-40%) | – | 1 (1=0-20%) | – | 1 (1=0-20%) | – | 1 (1=0-20%) | – | 1 (1=0-20%) | – | 1 (1=0-20%) | – | 1 (1=0-20%) |
